Source: patent US11261186B2, “Biaryl derivative as GPR120 agonist” (LG CHEM, LTD., priority 2014, dated 2022)

Biological target: T1, hGPR120 (Homo sapiens, UniProt Q5NUL3)
T1 construct: expressed in transfected cells; host or cells: CHO-K1
T1 sequence (Q5NUL3 1-361): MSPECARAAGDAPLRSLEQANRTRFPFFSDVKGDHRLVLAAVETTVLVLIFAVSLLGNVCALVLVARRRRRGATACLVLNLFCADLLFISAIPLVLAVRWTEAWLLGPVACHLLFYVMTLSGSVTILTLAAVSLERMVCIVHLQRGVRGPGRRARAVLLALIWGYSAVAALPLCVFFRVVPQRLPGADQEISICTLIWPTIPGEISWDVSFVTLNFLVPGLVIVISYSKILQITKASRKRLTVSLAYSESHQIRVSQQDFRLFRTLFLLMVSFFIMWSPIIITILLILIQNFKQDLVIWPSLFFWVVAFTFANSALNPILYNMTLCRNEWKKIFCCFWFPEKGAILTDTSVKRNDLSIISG
Assay: Measurement of Activity of GPR120 Agonist (Cell-Based Assay), Calcium 5 dye fluorescence
Conditions: CHO-K1 cells expressing Ga16 and hGPR120
Procedure, shortened: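 After an 18 h incubation at 37 °C, the transfected CHO-K1 cells (Gα16, hGPR120) received Calcium 5 dye for 1 h; compound dilutions in 0.5% DMSO were then injected and emission at 525 nm recorded, with values given as % of the vehicle response.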

Row | SMILES | EC50 [nM]
1 | CC(C)(C)Oc1cccc(-c2cc(F)c(N3CCC(CC(=O)O)CC3)c(F)c2)n1 [Example 309, 2-[1-[4-(6-tert-butoxy-2-pyridyl)-2,6-difluoro-phenyl]-4-piperidyl]acetic acid] | 200 to 2000
2 | CC(C)(CCCC(=O)O)c1ccc(-c2cccnc2SC2CCCC2)cc1 [Example 163, 5-[4-(2-cyclopentylsulfanyl-pyridin-3-yl)-phenyl]-5-methyl-hexanoic acid] | 200 to 2000
3 | O=C(O)CC1CCN(c2c(F)cc(-c3cccc(OCC4CC4)n3)cc2Cl)CC1 [Example 307, 2-[1-[2-chloro-4-[6-(cyclopropylmethoxy)-2-pyridyl]-6-fluoro-phenyl]-4-piperidyl]acetic acid] | 200 to 2000
4 | O=C(O)CCCOc1ccc(-c2cccc(OC3CCC3)n2)cc1F [Example 538, 4-[4-(6-cyclobutoxy-pyridin-2-yl)-2-fluoro-phenoxy]-butyric acid] | < 200
5 | Cc1cc(OC2CCC2)nc(-c2cc(F)c(N3CCC(CC(=O)O)C3)c(F)c2)n1 (stereo not drawn) [Example 575, {1-[4-(4-cyclobutoxy-6-methyl-pyrimidin-2-yl)-2,6-difluoro-phenyl]-pyrrolidin-3-yl}-acetic acid] | 200 to 2000
6 | O=C(O)CCCOc1ccc(-c2cccc3c2OC2(CCCC2)O3)cc1 [Example 288, 4-(4-spiro[1,3-benzodioxol-2,1′-cyclopentan]-4-ylphenoxy)butanoic acid] | < 200
7 | O=C(O)CCCCc1ccc(-c2cccnc2SC2CCC2)cc1 [Example 27, 5-[4-(2-cyclobutylsulfanyl-3-pyridyl)phenyl]pentanoic acid] | < 200
8 | COc1ccc(-c2cc(F)c(OCCCC(=O)O)c(F)c2)c2c1OC(C)(C)C2 [Example 257, 4-[2,6-difluoro-4-(7-methoxy-2,2-dimethyl-2,3-dihydro-benzofuran-4-yl)-phenoxy]-butyric acid] | < 200
9 | O=C(O)CC1CCN(c2c(F)cc(-c3cccc4c3OC(F)(F)O4)cc2F)CC1 [Example 439, {1-[4-(2,2-difluoro-benzo[1,3]dioxol-4-yl)-2,6-difluoro-phenyl]-piperidin-4-yl}-acetic acid] | 200 to 2000
10 | O=C(O)CC1CCN(c2c(F)cc(-c3cncc(C4CCCC4)n3)cc2F)CC1 [Example 363, 2-[1-[4-(6-cyclopentylpyrazin-2-yl)-2,6-difluoro-phenyl]-4-piperidyl]acetic acid] | < 200
11 | O=C(O)CC1CCN(c2c(F)cc(-c3cncc(OC4CCCC4)n3)cc2F)CC1 [Example 344, 2-[1-[4-[6-(cyclopentoxy)pyrazin-2-yl]-2,6-difluoro-phenyl]-4-piperidyl]acetic acid] | < 200
12 | O=C(O)CC1CCN(c2c(F)cc(-c3cc(F)cc(OC4CCC4)c3)cc2F)CC1 [Example 306, 2-[1-[4-[3-(cyclobutoxy)-5-fluoro-phenyl]-2,6-difluoro-phenyl]-4-piperidyl]acetic acid] | 200 to 2000
13 | O=C(O)CC1CCN(c2c(F)cc(-c3csc(OC4CCC4)n3)cc2F)CC1 [Example 326, 2-[1-[4-[2-(cyclobutoxy)thiazol-4-yl]-2,6-difluoro-phenyl]-4-piperidyl]acetic acid] | 200 to 2000
14 | O=C(O)CC1CCN(c2c(F)cc(-c3cncc(OC4CCCC4)n3)cc2F)C1 (stereo not drawn) [Example 497, 2-{1-[2,6-difluoro-4-(6-cyclopentoxy-pyrazin-2-yl)phenyl]pyrrolidin-3-yl}acetic acid] | 200 to 2000
15 | COc1cccc2c1ccn2-c1cc(F)c(OCCCC(=O)O)c(F)c1 [Example 478, 4-[2,6-difluoro-4-(4-methoxyindol-1-yl)phenoxy]butanoic acid] | 200 to 2000
16 | Cc1cc(OC2CCC2)nc(-c2cc(F)c(N3CC(CC(=O)O)C3)c(F)c2)n1 [Example 328, 2-[1-[4-[4-(cyclobutoxy)-6-methyl-pyrimidin-2-yl]-2,6-difluoro-phenyl]azetidin-3-yl]acetic acid] | 200 to 2000
17 | COCCOc1cc(C)nc(-c2cc(F)c(N3CCC(CC(=O)O)CC3)c(F)c2)n1 [Example 602, (1-{2,6-difluoro-4-[4-(2-methoxy-ethoxy)-6-methyl-pyrimidin-2-yl]-phenyl}-piperidin-4-yl)-acetic acid] | 200 to 2000
18 | CC(C)Oc1ccnc(-c2cc(F)c(N3CCC(CC(=O)O)C3)c(F)c2)n1 (stereo not drawn) [Example 500, 2-{1-[2,6-difluoro-4-(4-isopropoxy-pyrimidin-2-yl)phenyl]pyrrolidin-3-yl}acetic acid] | < 200
19 | CN(CCCC(=O)O)c1c(F)cc(-c2nccc(OCC3CC3)n2)cc1F [Example 490, 4-[4-[4-(cyclopropylmethoxy)pyrimidin-2-yl]-2,6-difluoro-N-methyl-anilino]butanoic acid] | < 200
20 | O=C(O)CC1CCN(c2c(F)cc(-c3ncc(F)c(OC4CCC4)n3)cc2F)CC1 [Example 371, 2-[1-[4-[4-(cyclobutoxy)-5-fluoro-pyrimidin-2-yl]-2,6-difluoro-phenyl]-4-piperidyl]acetic acid] | < 200

Next, values leading:

Row | EC50 [nM] | SMILES
21 | < 200 | CN(CCCC(=O)O)c1c(F)cc(-n2ccc3cccc(Cl)c32)cc1F [Example 475, 4-[4-(7-chloroindol-1-yl)-2,6-difluoro-N-methyl-anilino]butanoic acid]
22 | 200 to 2000 | O=C(O)CC1CCN(c2c(F)cc(-c3cccc(NC4CCCC4)n3)cc2F)CC1 [Example 358, 2-[1-[4-[6-(cyclopentylamino)-2-pyridyl]-2,6-difluoro-phenyl]-4-piperidyl]acetic acid]
23 | 2000 to 20000 | O=C(O)CCc1ccc2cc(-c3ccccc3Oc3ccccc3F)ccc2c1 [Example 151, 3-{6-[2-(2-fluoro-phenoxy)-phenyl]-naphthalen-2-yl}-propanoic acid]
24 | < 200 | O=C(O)CCCOc1c(F)cc(-c2cccc(OCC3CC3)c2)cc1Cl [Example 406, 4-(5-chloro-3′-cyclopropylmethoxy-3-fluoro-biphenyl-4-yloxy)-butyric acid]
25 | < 200 | O=C(O)CCCCNc1c(F)cc(-c2cccc(OCC3CC3)n2)cc1F [Example 98, 5-[4-[6-(cyclopropylmethoxy)-2-pyridyl]-2,6-difluoro-anilino]pentanoic acid]
26 | 200 to 2000 | Cc1cc(OCC2CC2)nc(-c2cc(F)c(OCC3CC3C(=O)O)c(F)c2)n1 (stereo not drawn) [Example 546, 2-[4-(4-cyclopropylmethoxy-6-methyl-pyrimidin-2-yl)-2,6-difluoro-phenoxymethyl]-cyclopropanecarboxylic acid]
27 | < 200 | CN(CCCC(=O)O)c1c(F)cc(-c2ccccc2NC2CCCC2)cc1F [Example 215, 4-[(2′-cyclopentylamino-3,5-difluoro-biphenyl-4-yl)-methyl-amino]-butyric acid]
28 | < 200 | O=C(O)CCc1ccc2cc(-c3cccnc3Oc3ccccc3)ccc2c1 [Example 144, 3-[6-(2-phenoxy-pyridin-3-yl)-naphthalen-2-yl]-propanoic acid]
29 | 200 to 2000 | Cc1cc(Oc2ccc(F)c(F)c2)nc(-c2cc(F)c(N3CCC(CC(=O)O)CC3)c(F)c2)n1 [Example 608, 2-[1-[2,6-difluoro-4-[4-(3,4-fluorophenoxy)-6-methyl-pyrimidin-2-yl]phenyl]-4-piperidyl]acetic acid]
30 | < 200 | COc1ccc(-c2cc(F)c(N(C)CCCC(=O)O)c(F)c2)c2c1OC(C)(C)C2 [Example 259, 4-{[2,6-difluoro-4-(7-methoxy-2,2-dimethyl-2,3-dihydro-benzofuran-4-yl)-phenyl]-methyl-amino}-butyric acid]
31 | < 200 | CCCSc1ncccc1-c1cc(F)c(C(C)CCCC(=O)O)c(F)c1 (stereo not drawn) [Example 43, 5-[2,6-difluoro-4-(2-propylsulfanyl-3-pyridyl)-phenyl]hexanoic acid]
32 | < 200 | Cc1cc(OCC2CC2)nc(-c2cc(F)c(OCCCC(=O)O)c(Cl)c2)c1 [Example 435, 4-[2-chloro-4-(6-cyclopropylmethoxy-4-methyl-pyridin-2-yl)-6-fluoro-phenoxy]-butyric acid]
33 | 200 to 2000 | CCN(CCCC(=O)O)c1c(F)cc(-c2cccnc2SC2CCC2)cc1F [Example 224, 4-{[4-(2-cyclobutylsulfanyl-pyridin-3-yl)-2,6-difluoro-phenyl]-ethyl-amino}-butyric acid]
34 | < 200 | O=C(O)CCCOc1c(F)cc(-c2ccc(F)c(OCC3CC3)c2)cc1Cl [Example 408, 4-(5-chloro-3′-cyclopropylmethoxy-3,4′-difluoro-biphenyl-4-yloxy)-butyric acid]
35 | 200 to 2000 | CCOc1csc(-c2cc(F)c(N3CCC(CC(=O)O)CC3)c(F)c2)n1 [Example 367, {1-[4-(4-ethoxy-thiazol-2-yl)-2,6-difluoro-phenyl]-piperidin-4-yl}acetic acid]
36 | < 200 | O=C(O)CCCOc1ccc(-c2cccc(SC3CCC3)n2)cc1F [Example 540, 4-[4-(6-cyclobutylsulfanyl-pyridin-2-yl)-2-fluoro-phenoxy]-butyric acid]
37 | < 200 | O=C(O)CCCCc1ccc(-c2cccnc2OCC2CC2)cc1F [Example 247, 5-[4-(2-cyclopropylmethoxy-pyridin-3-yl)-2-fluoro-phenyl]-pentanoic acid]
38 | 2000 to 20000 | CC(C)n1cc(Cl)c2ccc(-c3cc(F)c(OCCCC(=O)O)c(F)c3)cc21 [Example 562, 4-[4-(3-chloro-1-isopropyl-1H-indol-6-yl)-2,6-difluoro-phenoxy]-butanoic acid]
39 | 200 to 2000 | O=C(O)CCc1ccc2cc(-c3ccccc3Oc3ccccc3)ccc2c1 [Example 142, 3-[6-(2-phenoxy-phenyl)-naphthalen-2-yl]-propanoic acid]
